The source of these data is patent US20240246931A1, “COMPOUNDS AS PD1/PD-L1 INHIBITORS AND METHODS THEREOF” (JUBILANT PRODEL LLC, priority 2021, published 2024).

The test concerns the target T1, PD-1/PD-L1 interaction (Homo sapiens, UniProt Q9NZQ7).
T1 construct: purchased CisBio 63ADK000CPAPEG
Nature of the test: PD-1/PD-L1 HTRF binding assay (CisBio kit). Conditions: HTRF PD1/PD-L1 inhibition assay. As for the experimental part:
PD-L1 Enzyme Assay: Homogenous Time-Resolved Fluorescence (HTRF) Binding Assay
All binding studies were performed using PD-1/PD-L1 Binding Assay Kit from CisBio (Catalog #63ADK000CPAPEG), according to the manufacturer's protocol. The interaction between Tag1-PD-1 and […] was detected by anti-Tag1-Eu^3+ (HTRF donor) and anti-Tag2-XL665 (HTRF acceptor). When the donor and acceptor antibodies were brought to close proximity due to PD-1 and PD-L1 binding, excitation of the donor antibody triggered fluorescent resonance energy transfer (FRET) towards the acceptor antibody, which in turn emitted specifically at 665 nm. This specific signal is positively proportional to PD-1/PD-L1 interaction. The compounds blocking PD-1/PD-L1 interaction will cause a reduction in HTRF signal. The necessary reagents were mixed in the following order: 2 μL compounds (or diluents buffer), 4 μL PD-L1 protein, 4 μL PD-1 protein. After an incubation of 15 minutes, 5 μL of anti-Tag1-Eu^3+ and 5 μL of anti-Tag2-XL665 were added. The plate was sealed and incubated at room temperature for 1 h. The fluorescence emission was read at two different wavelengths (665 nm and 620 nm) on a BMG PheraStar® multi-plate reader.
Results were calculated from the 665 nm and 620 nm fluorescence signal and expressed in HTRF ratio=(665 nm/620 nm)×10^4.
Compounds having IC50<100 nM are designated as “A”; 100-500 nM are designated as “B”; and >500 nM are designated as “C” respectively.

pIC50: −log10 of the molar value.

T1 sequence (Q9NZQ7 19-238 limits assumed): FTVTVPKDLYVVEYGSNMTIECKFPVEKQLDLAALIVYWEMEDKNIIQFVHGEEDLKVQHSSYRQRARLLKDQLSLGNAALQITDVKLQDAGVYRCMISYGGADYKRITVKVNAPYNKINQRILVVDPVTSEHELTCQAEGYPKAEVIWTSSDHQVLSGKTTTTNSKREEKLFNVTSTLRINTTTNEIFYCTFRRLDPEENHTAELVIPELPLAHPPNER

As to `COc1ccc(-c2cccc(COc3cc(OCc4cncc(C#N)c4)c(CN4CCC4CO)c4c3CCC4)c2C)cc1` (centres unmarked) [Example 63, 5-(((4-((2-(hydroxymethyl)azetidin-1-yl)methyl)-7-((4′-methoxy-2-methyl-[1,1′-biphenyl]-3-yl)methoxy)-2,3-dihydro-1H-inden-5-yl)oxy)methyl)nicotinonitrile], the pIC50 was < 6.30.

Turning to `Cc1c(COc2cc(OCc3cncc(C#N)c3)c(CN3CC(CO)C3)c3c2CCC3)cccc1-c1ccccc1` [Example 14, 5-(((4-((3-(hydroxymethyl)azetidin-1-yl)methyl)-7-((2-methyl-[1,1′-biphenyl]-3-yl)methoxy)-2,3-dihydro-1H-inden-5-yl)oxy)methyl)nicotinonitrile], the pIC50 is > 7.00.

With `Cc1c(COc2cc(OCc3cncc(C#N)c3)c(CN3CC[C@@H](CO)C3)c3c2CCC3)cccc1-c1ccccc1` [Example 15, (R)-5-(((4-((3-(hydroxymethyl)pyrrolidin-1-yl)methyl)-7-((2-methyl-[1,1′-biphenyl]-3-yl)methoxy)-2,3-dihydro-1H-inden-5-yl)oxy)methyl)nicotinonitrile], the negative-log IC50 (pIC50) was > 7.00.

Turning to `Cc1c(COc2cc(OCc3cn(C)cn3)c(CN3CCC3CO)c3c2CCC3)cccc1-c1ccccc1` (centres unmarked) [Example 41, (1-((5-((1-methyl-1H-imidazol-4-yl)methoxy)-7-((2-methyl-[1,1′-biphenyl]-3-yl)methoxy)-2,3-dihydro-1H-inden-4-yl)methyl)azetidin-2-yl)methanol], the negative logarithm of the IC50 (pIC50) was 6.30 to 7.00.

On to `Cc1c(COc2cc(Oc3ccccc3)c(CN3CCC3CO)c3c2CCC3)cccc1-c1ccccc1` (centres unmarked) [Example 78, (1-((7-((2-methyl-[1,1′-biphenyl]-3-yl)methoxy)-5-phenoxy-2,3-dihydro-1H-inden-4-yl)methyl)azetidin-2-yl)methanol], for which the pIC50 is < 6.30.

Take `Cc1c(COc2cc(OCc3cncc(C#N)c3)c(CN3CCC3CO)c3c2CCC3)cccc1-c1ccccc1F` (centres unmarked) [Example 62, 5-(((7-((2′-fluoro-2-methyl-[1,1′-biphenyl]-3-yl)methoxy)-4-((2-(hydroxymethyl)azetidin-1-yl)methyl)-2,3-dihydro-1H-inden-5-yl)oxy)methyl)nicotinonitrile]: the pIC50 was > 7.00.

As to `Cc1c(COc2cc(OCc3cncc(C#N)c3)c(CN3CCC3CO)c3c2CCC3)cccc1-c1cccc(F)c1` (centres unmarked) [Example 64, 5-(((7-((3′-fluoro-2-methyl-[1,1′-biphenyl]-3-yl)methoxy)-4-((2-(hydroxymethyl)azetidin-1-yl)methyl)-2,3-dihydro-1H-inden-5-yl)oxy)methyl)nicotinonitrile], the negative-log IC50 (pIC50) was > 7.00.

For `Cc1c(Br)cccc1COc1cc(OCc2cncc(C#N)c2)c(CN2CCC2CO)c2c1CCC2` (centres unmarked) [Example 54, 5-(((7-((3-bromo-2-methylbenzyl)oxy)-4-((2-(hydroxymethyl)azetidin-1-yl)methyl)-2,3-dihydro-1H-inden-5-yl)oxy)methyl)nicotinonitrile], the pIC50 is < 6.30.

Compound `N#Cc1cccc(COc2cc(OCc3cccc(-c4ccccc4)c3C#N)c3c(c2CN2CCCC4CC42CO)CCC3)c1` (centres unmarked) [Example 36, 3-(((6-((3-cyanobenzyl)oxy)-7-((1-(hydroxymethyl)-2-azabicyclo[4.1.0]heptan-2-yl)methyl)-2,3-dihydro-1H-inden-4-yl)oxy)methyl)-[1,1′-biphenyl]-2-carbonitrile] had a pIC50 of 6.30 to 7.00.

`Cc1c(COc2cc(OCc3cnn(C)c3)c(CN3CCCC[C@H]3CO)c3c2CCC3)cccc1-c1ccccc1` [Example 39, (S)-(1-((5-((1-methyl-1H-pyrazol-4-yl)methoxy)-7-((2-methyl-[1,1′-biphenyl]-3-yl)methoxy)-2,3-dihydro-1H-inden-4-yl)methyl)piperidin-2-yl)methanol] gave a negative-log IC50 (pIC50) of 6.30 to 7.00.

In the case of `Cc1c(COc2cc(OCc3cncc(C#N)c3)c(CN3CCC3CO)c3c2CCC3)cccc1-c1cncnc1` (centres unmarked) [Example 59, 5-(((4-((2-(hydroxymethyl)azetidin-1-yl)methyl)-7-((2-methyl-3-(pyrimidin-5-yl)benzyl)oxy)-2,3-dihydro-1H-inden-5-yl)oxy)methyl)nicotinonitrile], the negative-log IC50 (pIC50) is < 6.30.

Regarding `Cc1c(COc2cc(OCc3cncc(C#N)c3)c(CN3CCCCCC3CO)c3c2CCC3)cccc1-c1ccccc1` (centres unmarked) [Example 20, 5-(((4-((2-(hydroxymethyl)azepan-1-yl)methyl)-7-((2-methyl-[1,1′-biphenyl]-3-yl)methoxy)-2,3-dihydro-1H-inden-5-yl)oxy)methyl)nicotinonitrile], the pIC50 was > 7.00.

`Cc1c(COc2cc(OCc3cncc(C#N)c3)c(CN3CCC3CO)c3c2CCC3)cccc1-c1ccc(O)cc1` (centres unmarked) [Example 55, 5-(((7-((4′-hydroxy-2-methyl-[1,1′-biphenyl]-3-yl)methoxy)-4-((2-(hydroxymethyl)azetidin-1-yl)methyl)-2,3-dihydro-1H-inden-5-yl)oxy)methyl)nicotinonitrile] had a pIC50 of 6.30 to 7.00.

`Cc1ccc(-c2cccc(COc3cc(OCc4cncc(C#N)c4)c(CN4CCC4CO)c4c3CCC4)c2C)cc1` (centres unmarked) [Example 73, 5-(((7-((2,4′-dimethyl-[1,1′-biphenyl]-3-yl)methoxy)-4-((2-(hydroxymethyl)azetidin-1-yl)methyl)-2,3-dihydro-1H-inden-5-yl)oxy)methyl)nicotinonitrile] had a negative logarithm of the IC50 (pIC50) of 6.30 to 7.00.

Take `Cc1c(COc2cc(OCc3cncc(C#N)c3)c(CN3CCC3CO)c3c2CCC3)cccc1-c1cnn(C)c1` (centres unmarked) [Example 68, 5-(((4-((2-(hydroxymethyl)azetidin-1-yl)methyl)-7-((2-methyl-3-(1-methyl-1H-pyrazol-4-yl)benzyl)oxy)-2,3-dihydro-1H-inden-5-yl)oxy)methyl)nicotinonitrile]: the negative-log IC50 (pIC50) was < 6.30.

For the compound `Cc1c(COc2cc(OCc3cncc(C#N)c3)c(CN3CCC3CO)c3c2CCC3)cccc1-c1cccc(O)c1` (centres unmarked) [Example 67, 5-(((7-((3′-hydroxy-2-methyl-[1,1′-biphenyl]-3-yl)methoxy)-4-((2-(hydroxymethyl)azetidin-1-yl)methyl)-2,3-dihydro-1H-inden-5-yl)oxy)methyl)nicotinonitrile], the negative logarithm of the IC50 (pIC50) was > 7.00.

For the compound `Cc1c(COc2cc(OCc3cncc(C#N)c3)c(C(=O)N3CCC[C@H]3CO)c3c2CCC3)cccc1-c1ccccc1` [Example 50, (S)-5-(((4-(2-(hydroxymethyl)pyrrolidine-1-carbonyl)-7-((2-methyl-[1,1′-biphenyl]-3-yl)methoxy)-2,3-dihydro-1H-inden-5-yl)oxy)methyl)nicotinonitrile], the pIC50 is 6.30 to 7.00.

As for `Cc1c(COc2cc(OCc3cncc(C#N)c3)c(CN3CCC3CO)c3c2CCC3)cccc1-c1ccc(OC(F)(F)F)cc1` (centres unmarked) [Example 66, 5-(((4-((2-(hydroxymethyl)azetidin-1-yl)methyl)-7-((2-methyl-4′-(trifluoromethoxy)-[1,1′-biphenyl]-3-yl)methoxy)-2,3-dihydro-1H-inden-5-yl)oxy)methyl)nicotinonitrile], the pIC50 is < 6.30.

`Cc1c(COc2cc(OCc3cncc(C#N)c3)c(CN3CCC3CO)c3c2CCC3)cccc1-c1ccccc1C(F)(F)F` (centres unmarked) [Example 60, 5-(((4-((2-(hydroxymethyl)azetidin-1-yl)methyl)-7-((2-methyl-2′-(trifluoromethyl)-[1,1′-biphenyl]-3-yl)methoxy)-2,3-dihydro-1H-inden-5-yl)oxy)methyl)nicotinonitrile] gave a pIC50 of 6.30 to 7.00.

Consider `Cc1c(COc2cc(OCc3cc(C#N)c[n+]([O-])c3)c(CN3CCCC[C@H]3CO)c3c2CCC3)cccc1-c1ccccc1` [Example 45, (S)-3-cyano-5-(((4-((2-(hydroxymethyl)piperidin-1-yl)methyl)-7-((2-methyl-[1,1′-biphenyl]-3-yl)methoxy)-2,3-dihydro-1H-inden-5-yl)oxy)methyl)pyridine 1-oxide], for which the pIC50 is > 7.00.

Take `CC(=O)NCC1CCCN1Cc1c(OCc2cncc(C#N)c2)cc(OCc2cccc(-c3ccccc3)c2C)c2c1CCC2` (centres unmarked) [Example 52, N-((1-((5-((5-cyanopyridin-3-yl)methoxy)-7-((2-methyl-[1,1′-biphenyl]-3-yl)methoxy)-2,3-dihydro-1H-inden-4-yl)methyl)pyrrolidin-2-yl)methyl)acetamide]: the pIC50 is > 7.00.

In turn, `Cc1c(COc2cc(OCc3cncc(C#N)c3)c(C(=O)N3CC[C@H](CO)C3)c3c2CCC3)cccc1-c1ccccc1` [Example 51, (S)-5-(((4-(3-(hydroxymethyl)pyrrolidine-1-carbonyl)-7-((2-methyl-[1,1′-biphenyl]-3-yl)methoxy)-2,3-dihydro-1H-inden-5-yl)oxy)methyl)nicotinonitrile] gave a pIC50 of 6.30 to 7.00.

Regarding `Cc1c(COc2cc(OCc3cncc(C#N)c3)c(CN3CCC[C@@H](CO)C3)c3c2CCC3)cccc1-c1ccccc1` [Example 21, (R)-5-(((4-((3-(hydroxymethyl)piperidin-1-yl)methyl)-7-((2-methyl-[1,1′-biphenyl]-3-yl)methoxy)-2,3-dihydro-1H-inden-5-yl)oxy)methyl)nicotinonitrile 2,2,2-trifluoroacetate], the pIC50 is > 7.00.

As usually defined, the pIC50 is the IC50 on a negative log10 scale, so that one unit is a factor of ten. A higher pIC50 goes with a small IC50.
